Data taken from patent publication US8604016B2, “Heterocyclic inhibitors of glutaminase” (Calithera Biosciences Inc., priority 2011, dated 2013).
pIC50: −log10 of the molar value. Read-outs that look alike come from different tables or passages of the source.

Molecular target: recombinant form of Glutaminase 1 (GAC) (Homo sapiens, UniProt O94925)
Test: Recombinant Enzyme Assay (GAC coupled to GDH, NADH absorbance, no preincubation)
Type: biochemical
Conditions: read-out: GAC Delta N2 IC50 no preinc
Procedure, shortened: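 GAC (4 nM) in Tris-HCl pH 8.0 with 150 mM K2HPO4, EDTA, BSA, DTT, plus 4 units/ml GDH and 4 mM ADP, without preincubation. Absorbance at 340 nm was read kinetically for 15 min at 20° C. Slopes (mAU/min) were compared with DMSO-only and control-compound wells on the same plate.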

Structure (SMILES) | pIC50 (no preincubation) | pIC50
O=C(Nc1nnc(CCCc2nnc(NC(=O)C(O)Cc3ccccc3)s2)s1)C(O)Cc1ccccc1 (stereo not shown) [Compound 170] | 5.13 | –
CC(=O)OC(C(=O)Nc1nnc(CCCc2nnc(NC(=O)C(OC(C)=O)c3ccccc3)s2)s1)c1ccccc1 (stereo not shown) [Compound 171] | < 4.70 | –
O=C(Nc1nnc(CCCc2nnc(NC(=O)C(O)c3ccccc3)s2)s1)C(O)c1ccccc1 (stereo not shown) [Compound 172] | 5.77 | –
CC(=O)OC(C(=O)Nc1nnc(CCCCc2nnc(NC(=O)C(OC(C)=O)c3ccccc3)s2)s1)c1ccccc1 (stereo not shown) [Compound 173] | 4.62 | –
O=C(Nc1nnc(CCCCc2nnc(NC(=O)C(O)c3ccccc3)s2)s1)C(O)c1ccccc1 (stereo not shown) [Compound 174] | 6.54 | –
N[C@H](C(=O)Nc1nnc(CCSCCc2nnc(NC(=O)[C@@H](N)c3ccccc3)s2)s1)c1ccccc1 [Compound 175] | 5.20 | –
O=C(Nc1nnc(CCCc2nnc(NC(=O)C(CO)c3ccccc3)s2)s1)C(CO)c1ccccc1 (stereo not shown) [Compound 176] | 6.24 | –
O=C(CC(C(=O)O)c1ccccc1)Nc1nnc(CCCCc2nnc(NC(=O)CC(C(=O)O)c3ccccc3)s2)s1 (stereo not shown) [Compound 177] | 5.96 | –
COC(=O)C(CC(=O)Nc1nnc(CCCCc2nnc(NC(=O)CC(C(=O)O)c3ccccc3)s2)s1)c1ccccc1 (stereo not shown) [Compound 178] | 5.82 | –
O=C(CCC(C(=O)O)c1ccccc1)Nc1nnc(CCSCCc2nnc(NC(=O)CCC(C(=O)O)c3ccccc3)s2)s1 (stereo not shown) [Compound 179] | 5.51 | –
O=C(Nc1nnc(CCSCCc2nnc(NC(=O)c3ccccc3CO)s2)s1)c1ccccc1CO [Compound 180] | 5.06 | –
CS(=O)(=O)c1ccc(CC(=O)Nc2nnc(CCSCCc3nnc(NC(=O)Cc4ccc(S(C)(=O)=O)cc4)s3)s2)cc1 [Compound 182] | 6.24 | –
O=C(Cc1ccc(C(F)(F)F)cc1)Nc1nnc(CCSCCc2nnc(NC(=O)Cc3ccc(C(F)(F)F)cc3)s2)s1 [Compound 183] | < 4.70 | –
CC(C)(C)c1ccc(CC(=O)Nc2nnc(CCSCCc3nnc(NC(=O)Cc4ccc(C(C)(C)C)cc4)s3)s2)cc1 [Compound 184] | < 4.70 | –
CC(C)(C)OC(=O)Nc1ccc(CC(=O)Nc2nnc(CCSCCc3nnc(NC(=O)Cc4ccc(NC(=O)OC(C)(C)C)cc4)s3)s2)cc1 [Compound 185] | < 4.70 | –
O=C(Nc1nnc(CCSCCc2nnc(NC(=O)C3Cc4cc(Cl)ccc4O3)s2)s1)C1Cc2cc(Cl)ccc2O1 (stereo not shown) [Compound 189] | 5.36 | –
O=C(Nc1nnc(CCCCc2nnc(NC(=O)C(CO)c3cccs3)s2)s1)C(CO)c1cccs1 (stereo not shown) [Compound 190] | 6.60 | –
CC(C)(C)c1ccc(CC(=O)Cc2nnc(CCCCc3nnc(NC(=O)Cc4ccc(C(C)(C)C)cc4)s3)s2)cc1 [Compound 191] | < 4.70 | –
O=C(Cc1cc2ccccc2o1)Cc1nnc(CCSCCc2nnc(NC(=O)Cc3cc4ccccc4o3)s2)s1 [Compound 193] | 5.47 | –
O=C(Cc1cc2ccccc2o1)Nc1nnc(CCCCc2nnc(NC(=O)Cc3cc4ccccc4o3)s2)s1 [Compound 194] | 5.00 | –
Nc1ccc(CC(=O)Nc2nnc(CCSCCc3nnc(NC(=O)Cc4ccc(N)cc4)s3)s2)cc1 [Compound 195] | 6.52 | –
Nc1ccc(CC(=O)Nc2nnc(CCCCc3nnc(NC(=O)Cc4ccc(N)cc4)s3)s2)cc1 [Compound 196] | 6.72 | –
O=C(CN1C(=O)OC[C@@H]1c1ccccc1)Nc1nnc(CCSCCc2nnc(NC(=O)CN3C(=O)OC[C@@H]3c3ccccc3)s2)s1 [Compound 197] | 5.16 | –

Structure (SMILES) | pIC50 (no preincubation) | pIC50
NS(=O)(=O)c1ccc(CC(=O)Nc2nnc(CCCCc3nnc(NC(=O)Cc4ccc(S(N)(=O)=O)cc4)s3)s2)cc1 [Compound 198] | 6.74 | –
O=C(Cc1ccccc1)Nc1nnc(CCSCc2nnc(NC(=O)Cc3ccccc3)s2)s1 [Compound 199] | 6.92 | –
Cn1cc(CC(=O)Nc2nnc(CCSCCc3nnc(NC(=O)Cc4cn(C)c5ccccc45)s3)s2)c2ccccc21 [Compound 200] | 6.21 | –
Cn1cc(CC(=O)Nc2nnc(CCCCc3nnc(NC(=O)Cc4cn(C)c5ccccc45)s3)s2)c2ccccc21 [Compound 201] | 5.57 | –
COCCOC(C(=O)Nc1nnc(CCCCc2nnc(NC(=O)C(OCCOC)c3ccccc3)s2)s1)c1ccccc1 (stereo not shown) [Compound 203] | 5.77 | –
COCC(C(=O)Nc1nnc(CCSCCc2nnc(NC(=O)C(COC)c3ccccc3)s2)s1)c1ccccc1 (stereo not shown) [Compound 204] | 6.04 | –
O=C(Cc1ccc(Cl)s1)Nc1nnc(CCSCCc2nnc(NC(=O)Cc3ccc(Cl)s3)s2)s1 [Compound 206] | < 4.70 | –
O=C(Cc1cc2ccccc2s1)Nc1nnc(CCSCCc2nnc(NC(=O)Cc3cc4ccccc4s3)s2)s1 [Compound 207] | 4.89 | –
O=C(Cc1ccccc1CO)Nc1nnc(CCCCc2nnc(NC(=O)Cc3ccccc3CO)s2)s1 [Compound 208] | – | 6.77
C=CCC(C(=O)Nc1nnc(CCCCc2nnc(NC(=O)C(CC=C)c3ccccc3)s2)s1)c1ccccc1 (stereo not shown) [Compound 209] | < 4.70 | –
O=C(Nc1nnc(CCCCc2nnc(NC(=O)[C@@H](O)c3ccccc3Cl)s2)s1)[C@@H](O)c1ccccc1Cl [Compound 210] | 6.42 | –
O=C(Nc1nnc(CCCCc2nnc(NC(=O)C(O)c3cccc(F)c3F)s2)s1)C(O)c1cccc(F)c1F (stereo not shown) [Compound 211] | 5.92 | –
O=C(Cc1csc2ccccc12)Nc1nnc(CCSCCc2nnc(NC(=O)Cc3csc4ccccc34)s2)s1 [Compound 212] | < 4.70 | –
O=C(Cn1ccc2ccccc21)Nc1nnc(CCSCCc2nnc(NC(=O)Cn3ccc4ccccc43)s2)s1 [Compound 213] | 5.60 | –
NCCC(C(=O)Nc1nnc(CCSCCc2nnc(NC(=O)C(CN)c3ccccc3)s2)s1)c1ccccc1 (stereo not shown) [Compound 214] | 6.09 | –
O=C(Nc1nnc(CCSCCc2nnc(NC(=O)c3cc4ccccc4o3)s2)s1)c1cc2ccccc2o1 [Compound 215] | 4.80 | –
N#Cc1ccc(CC(=O)Nc2nnc(CCSCCc3nnc(NC(=O)Cc4ccc(C#N)cc4)s3)s2)cc1 [Compound 216] | 6.05 | –
NS(=O)(=O)c1ccc(CC(=O)Nc2nnc(CCSCCc3nnc(NC(=O)Cc4ccc(S(N)(=O)=O)cc4)s3)s2)cc1 [Compound 217] | 6.62 | –
O=C(Nc1nnc(CCSCCc2nnc(NC(=O)c3coc4ccccc34)s2)s1)c1coc2ccccc12 [Compound 218] | < 4.70 | –
COc1ccccc1CC(=O)Nc1nnc(CCSCCc2nnc(NC(=O)Cc3ccccc3OC)s2)s1 [Compound 219] | 6.77 | –
COC(=O)C(C(=O)Nc1nnc(CCCCc2nnc(NC(=O)C(C(=O)OC)c3ccccc3)s2)s1)c1ccccc1 (stereo not shown) [Compound 220] | 5.80 | –
O=C(Cc1coc2ccccc12)Nc1nnc(CCSCCc2nnc(NC(=O)Cc3coc4ccccc34)s2)s1 [Compound 221] | < 4.70 | –
O=C(Cc1coc2ccccc12)Nc1nnc(CCCCc2nnc(NC(=O)Cc3coc4ccccc34)s2)s1 [Compound 222] | < 4.70 | –

Structure (SMILES) | pIC50 (no preincubation) | pIC50
CC1(C)O[C@H](C(=O)Nc2nnc(CCCCc3nnc(NC(=O)[C@H]4OC(C)(C)O[C@@H]4c4ccccc4)s3)s2)[C@@H](c2ccccc2)O1 [Compound 224] | < 4.70 | –
O=C(Nc1nnc(CCCCc2nnc(NC(=O)[C@H](O)[C@@H](O)c3ccccc3)s2)s1)[C@H](O)[C@@H](O)c1ccccc1 [Compound 225] | < 4.70 | –
O=C(Nc1nnc(CCCCc2nnc(NC(=O)[C@@H](O)[C@H](O)c3ccccc3)s2)s1)[C@@H](O)[C@H](O)c1ccccc1 [Compound 226] | 5.64 | –
Nc1nnc(CCCCc2nnc(NC(=O)C(CO)c3ccccc3)s2)s1 (stereo not shown) [Compound 227] | 5.00 | –
O=C(CCN1CCOCC1)OCC(C(=O)Nc1nnc(CCCCc2nnc(NC(=O)C(CO)c3ccccc3)s2)s1)c1ccccc1 (stereo not shown) [Compound 228, 3-((5-{4-[5-(3-hydroxy-2-phenylpropanamido)-1,3,4-thiadiazol-2-yl]butyl}-1,3,4-thiadiazol-2-yl)amino)-3-oxo-2-phenylpropyl 3-morpholinopropanoate] | 6.24 | –
O=C(Nc1nnc(CCCCc2nnc(NC(=O)c3ccnn3-c3ccccc3)s2)s1)c1ccnn1-c1ccccc1 [Compound 229] | 5.41 | –
NCC(C(=O)Nc1nnc(CCSCCc2nnc(NC(=O)C(CN)c3ccccc3)s2)s1)c1ccccc1 (stereo not shown) [Compound 230] | 4.92 | –
NCC(C(=O)Nc1nnc(CCCCc2nnc(NC(=O)C(CN)c3ccccc3)s2)s1)c1ccccc1 (stereo not shown) [Compound 231] | 5.13 | –
CC(=O)NCC(C(=O)Nc1nnc(CCSCCc2nnc(NC(=O)C(CNC(C)=O)c3ccccc3)s2)s1)c1ccccc1 (stereo not shown) [Compound 232] | 5.01 | –
O=C(Cc1cc2ccccc2s1)Nc1nnc(CCCCc2nnc(NC(=O)Cc3cc4ccccc4s3)s2)s1 [Compound 233] | 4.82 | –
COC(=O)C(C(=O)Nc1nnc(CCSCCc2nnc(NC(=O)C(C(=O)OC)c3ccccc3)s2)s1)c1ccccc1 (stereo not shown) [Compound 234] | 5.70 | –
O=C(Cc1cccs1)Nc1nnc(CCSCc2nnc(NC(=O)Cc3cccs3)s2)s1 [Compound 237] | 6.70 | –
O=C(CN1C(=O)OC[C@H]1c1ccccc1)Nc1nnc(CCSCCc2nnc(NC(=O)CN3C(=O)OC[C@H]3c3ccccc3)s2)s1 [Compound 243] | 5.57 | –
CCOC(=O)Nc1nnc(CCCCc2nnc(NC(=O)Cc3ccccc3)s2)s1 [Compound 244] | 6.08 | –
COc1ccccc1C(CO)C(=O)Nc1nnc(CCSCCc2nnc(NC(=O)C(CO)c3ccccc3OC)s2)s1 (stereo not shown) [Compound 245] | 6.28 | –
COc1ccccc1CC(=O)Nc1nnc(CCSCCc2nnc(NC(=O)C(CO)c3ccccc3OC)s2)s1 (stereo not shown) [Compound 246] | 6.40 | –
Cc1cccc(CC(=O)Nc2nnc(CCSCCc3nnc(NC(=O)Cc4cccc(C)c4)s3)s2)c1 [Compound 247] | 6.72 | –
COc1ccccc1CC(=O)Nc1nnc(CCSCc2nnc(NC(=O)Cc3ccccc3OC)s2)s1 [Compound 249] | 6.92 | –
COCOCCOC(C(=O)Nc1nnc(CCCCc2nnc(NC(=O)C(OCCOCOC)c3ccccc3)s2)s1)c1ccccc1 (stereo not shown) [Compound 251] | 5.55 | –
O=C(Nc1nnc(CCCCc2nnc(NC(=O)C(OCCO)c3ccccc3)s2)s1)C(OCCO)c1ccccc1 (stereo not shown) [Compound 252] | 5.92 | –
O=C(CO)Nc1nnc(CCSCCc2nnc(NC(=O)CO)s2)s1 [Compound 253] | 4.68 | –
